{"source": "paper PMC12446468", "about": "“Anti-inflammatory and cytotoxic assessment of flavonoids isolated from Viola odorata flowers with computer-guided docking study” (Scientific Reports, 2025)", "key": {"[1]": {"system": "hepatocellular carcinoma (HepG2)", "experiment": "MTT cytotoxicity assay, HepG2", "format": "cell-based, human", "details": "for % Cell viability / % Cytotoxicity: 48 h", "protocol": "(§1) The assessment of cytotoxicity for the methanolic extract and isolated flavonoids was performed under controlled and sterile conditions within a Class II A2 Laminar flow biosafety cabinet. The carcinoma cell lines used in this study was obtained from Nawah Scientific Inc. (Cairo, Egypt). The cells were cultured in Dulbecco’s Modified Eagle’s Medium, enriched with 10% heat-inactivated fetal bovine serum, 100 U/ml penicillin, and 100 μg/ml streptomycin sulfate, maintained at […] in humidified incubators with 5% CO2. Upon reaching approximately 80% confluence, the cells were subcultured using a trypsin–EDTA solution. Harvesting occurred during the logarithmic growth phase. The methanolic extract and isolated flavonoids were dissolved in DMSO and stored at − 20 °C. For each experimental trial, the stock solutions were mixed with the culture medium to obtain the required final concentrations.\n(§2) The effectiveness of the extract was compared to that of the reference drug, Doxorubicin. The percentage of cell viability was calculated by taking the ratio of the absorbance of the plant extract to that of the control, multiplied by 100. Furthermore, the IC50 value of the plant extract was determined using Sigma Plot software version 11 (Spw.exe) (https://sigmaplot.software.informer.com/11.0/)."}, "[2]": {"system": "human colonic epithelial cells (Caco-2)", "experiment": "MTT cytotoxicity assay, Caco-2", "format": "cell-based", "details": "for % Cell viability / % Cytotoxicity: 48 h", "protocol": "as §1, §2"}, "[3]": {"target": "T1, COX-1 (Ovis aries, UniProt P05979)", "T1 construct": "purchased Cayman 560131", "T1 sequence (P05979 25-600)": "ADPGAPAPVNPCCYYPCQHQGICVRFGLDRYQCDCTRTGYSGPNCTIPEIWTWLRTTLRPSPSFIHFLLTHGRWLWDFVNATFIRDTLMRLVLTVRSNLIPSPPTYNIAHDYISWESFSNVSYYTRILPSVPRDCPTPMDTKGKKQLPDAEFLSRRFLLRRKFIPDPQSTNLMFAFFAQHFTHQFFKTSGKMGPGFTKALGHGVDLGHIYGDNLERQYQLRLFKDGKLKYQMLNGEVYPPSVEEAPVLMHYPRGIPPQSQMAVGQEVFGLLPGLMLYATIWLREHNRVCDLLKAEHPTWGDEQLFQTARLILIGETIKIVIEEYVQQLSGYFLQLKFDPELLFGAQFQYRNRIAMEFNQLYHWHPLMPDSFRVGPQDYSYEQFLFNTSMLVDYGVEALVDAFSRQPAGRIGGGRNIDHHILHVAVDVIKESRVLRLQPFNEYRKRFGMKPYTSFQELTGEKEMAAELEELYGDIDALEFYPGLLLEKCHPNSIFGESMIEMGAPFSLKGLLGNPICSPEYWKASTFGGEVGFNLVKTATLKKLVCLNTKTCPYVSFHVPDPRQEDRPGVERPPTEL", "experiment": "COX-1 inhibition assay (Cayman COX kit)", "format": "biochemical, ovine/human", "details": "mean ± SE, n = 3", "from_the_text": "(§3) The requirements for High-Performance Liquid Chromatography (HPLC) and all compounds tested were of the utmost analytical purity. […] COX-1 and COX-2 (ovine/human), as well as the 5-LOX enzyme (human recombinant) were obtained from Sigma-Aldrich. Dulbecco’s Modified Eagle’s Medium (DMEM), along with penicillin/streptomycin and L-glutamine, were acquired from Gibco BRL, California, USA. Fetal bovine serum (FBS) and 3-(4, 5-dimethylthiazol-2-yl)-2, 5-[…] (MTT) were supplied by Sigma-Aldrich, St. Louis, Missouri, USA.\n(§4) The methanolic extract of V. odorata flowers and isolated flavonoids were subjected to an in vitro anti-inflammatory assessment by inhibiting two isoenzymes, cyclooxygenase COX-1 and COX-2 (ovine/human), as well as the 5-LOX enzyme (human recombinant)."}, "[4]": {"target": "T2, 5-LOX enzyme (human recombinant) (Homo sapiens, UniProt P09917)", "T2 construct": "purchased Sigma-Aldrich 437996", "T2 sequence (P09917 1-674)": "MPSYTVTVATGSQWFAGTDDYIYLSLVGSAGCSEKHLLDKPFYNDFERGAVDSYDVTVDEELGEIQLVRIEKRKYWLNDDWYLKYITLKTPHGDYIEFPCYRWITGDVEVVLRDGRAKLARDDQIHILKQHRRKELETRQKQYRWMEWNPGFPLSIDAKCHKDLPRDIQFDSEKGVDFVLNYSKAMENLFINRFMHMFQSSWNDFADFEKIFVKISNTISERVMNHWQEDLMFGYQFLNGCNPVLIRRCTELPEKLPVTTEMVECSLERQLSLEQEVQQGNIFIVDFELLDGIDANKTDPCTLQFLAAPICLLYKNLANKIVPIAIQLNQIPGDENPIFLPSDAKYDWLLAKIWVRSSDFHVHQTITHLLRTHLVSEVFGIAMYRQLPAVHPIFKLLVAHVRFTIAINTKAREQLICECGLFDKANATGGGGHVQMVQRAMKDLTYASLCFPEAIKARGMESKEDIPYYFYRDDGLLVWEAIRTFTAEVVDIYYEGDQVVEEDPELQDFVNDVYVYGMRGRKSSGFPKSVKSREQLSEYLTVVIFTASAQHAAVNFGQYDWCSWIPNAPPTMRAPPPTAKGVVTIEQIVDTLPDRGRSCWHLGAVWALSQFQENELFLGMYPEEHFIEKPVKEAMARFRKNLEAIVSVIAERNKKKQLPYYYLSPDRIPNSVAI", "experiment": "5-lipoxygenase inhibition assay (5-LOX kit)", "format": "biochemical", "details": "mean ± SE, n = 3", "from_the_text": "as §3, §4"}, "[5]": {"system": "human colorectal carcinoma cells (HTC-116)", "experiment": "MTT cytotoxicity assay, HTC-116", "format": "cell-based", "details": "for % Cell viability / % Cytotoxicity: 48 h", "protocol": "as §1, §2"}, "[6]": {"target": "T3, COX-2 (Homo sapiens, UniProt P35354)", "T3 construct": "purchased Cayman 560131", "T3 sequence (P35354 18-604)": "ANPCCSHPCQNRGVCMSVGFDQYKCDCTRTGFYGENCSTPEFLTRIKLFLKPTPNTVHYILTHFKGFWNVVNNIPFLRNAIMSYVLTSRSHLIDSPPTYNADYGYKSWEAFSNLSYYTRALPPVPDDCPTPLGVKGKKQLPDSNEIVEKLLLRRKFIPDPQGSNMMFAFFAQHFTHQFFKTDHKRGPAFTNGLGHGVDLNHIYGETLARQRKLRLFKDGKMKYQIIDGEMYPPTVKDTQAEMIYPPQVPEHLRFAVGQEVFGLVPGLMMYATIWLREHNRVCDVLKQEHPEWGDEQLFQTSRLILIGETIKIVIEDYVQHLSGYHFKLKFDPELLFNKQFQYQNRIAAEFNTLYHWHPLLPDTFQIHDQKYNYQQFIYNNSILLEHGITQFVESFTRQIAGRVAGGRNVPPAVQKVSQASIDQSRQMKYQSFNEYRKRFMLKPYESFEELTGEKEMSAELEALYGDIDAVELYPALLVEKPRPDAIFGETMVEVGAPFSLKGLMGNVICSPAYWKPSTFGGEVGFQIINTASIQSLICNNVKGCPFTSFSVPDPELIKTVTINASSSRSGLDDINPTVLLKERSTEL", "experiment": "COX-2 inhibition assay (Cayman COX kit)", "format": "biochemical, ovine/human", "from_the_text": "as §3, §4"}}, "note": "Marks after values point to notes of the source that are not given here."}
{"smiles": "O=c1cc(-c2ccc(O)c(O)c2)oc2cc(O[C@@H]3O[C@H](CO)[C@@H](O)[C@H](O)[C@H]3O)cc(O)c12", "note": "[Luteolin 7-O-glucoside, luteolin 7-O-glucoside]", "values": [{"measurement": "% Cell viability", "setting": "[1]; HepG2, 6.25 ug/ml", "result": 70.35, "unit": "%"}, {"measurement": "% Cytotoxicity", "setting": "[1]; HepG2, 6.25 ug/ml", "result": 29.65, "unit": "%"}, {"measurement": "% Cell viability", "setting": "[1]; HepG2, 12.5 ug/ml", "result": 63.99, "unit": "%"}, {"measurement": "% Cytotoxicity", "setting": "[1]; HepG2, 12.5 ug/ml", "result": 36.01, "unit": "%"}, {"measurement": "% Cell viability", "setting": "[1]; HepG2, 25 ug/ml", "result": 42.58, "unit": "%"}, {"measurement": "% Cytotoxicity", "setting": "[1]; HepG2, 25 ug/ml", "result": 57.42, "unit": "%"}, {"measurement": "% Cell viability", "setting": "[1]; HepG2, 50 ug/ml", "result": 28.52, "unit": "%"}, {"measurement": "% Cytotoxicity", "setting": "[1]; HepG2, 50 ug/ml", "result": 71.48, "unit": "%"}, {"measurement": "% Cell viability", "setting": "[1]; HepG2, 100 ug/ml", "result": 14.11, "unit": "%"}, {"measurement": "% Cytotoxicity", "setting": "[1]; HepG2, 100 ug/ml", "result": 85.89, "unit": "%"}, {"measurement": "IC50", "setting": "[1]; HepG2, 48 h", "result": "28.23^c ug/ml"}, {"measurement": "% Cell viability", "setting": "[2]; Caco-2, 6.25 ug/ml", "result": 70.32, "unit": "%"}, {"measurement": "% Cytotoxicity", "setting": "[2]; Caco-2, 6.25 ug/ml", "result": 29.68, "unit": "%"}, {"measurement": "% Cell viability", "setting": "[2]; Caco-2, 12.5 ug/ml", "result": 60.35, "unit": "%"}, {"measurement": "% Cytotoxicity", "setting": "[2]; Caco-2, 12.5 ug/ml", "result": 39.65, "unit": "%"}, {"measurement": "% Cell viability", "setting": "[2]; Caco-2, 25 ug/ml", "result": 49.22, "unit": "%"}, {"measurement": "% Cytotoxicity", "setting": "[2]; Caco-2, 25 ug/ml", "result": 50.78, "unit": "%"}, {"measurement": "% Cell viability", "setting": "[2]; Caco-2, 50 ug/ml", "result": 31.01, "unit": "%"}, {"measurement": "% Cytotoxicity", "setting": "[2]; Caco-2, 50 ug/ml", "result": 68.99, "unit": "%"}, {"measurement": "% Cell viability", "setting": "[2]; Caco-2, 100 ug/ml", "result": 10.63, "unit": "%"}, {"measurement": "% Cytotoxicity", "setting": "[2]; Caco-2, 100 ug/ml", "result": 89.37, "unit": "%"}, {"measurement": "IC50", "setting": "[2]; Caco-2, 48 h", "result": "29.42^c ug/ml"}, {"measurement": "IC50 values COX-1", "setting": "[3]", "result": "0.982 ± 0.09^c ug/ml"}, {"measurement": "IC50 values 5-LOX", "setting": "[4]", "result": "0.915 ± 0.21^ab ug/ml"}, {"measurement": "% Cell viability", "setting": "[5]; HTC-116, 6.25 ug/ml", "result": 69.86, "unit": "%"}, {"measurement": "% Cytotoxicity", "setting": "[5]; HTC-116, 6.25 ug/ml", "result": 30.14, "unit": "%"}, {"measurement": "% Cell viability", "setting": "[5]; HTC-116, 12.5 ug/ml", "result": 59.38, "unit": "%"}, {"measurement": "% Cytotoxicity", "setting": "[5]; HTC-116, 12.5 ug/ml", "result": 40.62, "unit": "%"}, {"measurement": "% Cell viability", "setting": "[5]; HTC-116, 25 ug/ml", "result": 49.17, "unit": "%"}, {"measurement": "% Cytotoxicity", "setting": "[5]; HTC-116, 25 ug/ml", "result": 50.83, "unit": "%"}, {"measurement": "% Cell viability", "setting": "[5]; HTC-116, 50 ug/ml", "result": 34.03, "unit": "%"}, {"measurement": "% Cytotoxicity", "setting": "[5]; HTC-116, 50 ug/ml", "result": 65.97, "unit": "%"}, {"measurement": "% Cell viability", "setting": "[5]; HTC-116, 100 ug/ml", "result": 13.01, "unit": "%"}, {"measurement": "% Cytotoxicity", "setting": "[5]; HTC-116, 100 ug/ml", "result": 86.99, "unit": "%"}, {"measurement": "IC50", "setting": "[5]; HTC-116, 48 h", "result": "30.17^c ug/ml"}, {"measurement": "IC50 values COX-2", "setting": "[6]; mean ± SE, n = 3", "result": "1.305 ± 0.14^b ug/ml"}, {"measurement": "Selectivity Index (COX-1/COX-2)", "setting": "[6]; ratio of IC50 COX-1 to IC50 COX-2", "result": 0.75}]}
